# Reference: PubChem BioAssay (NCI)
#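 GI50: concentration for 50% inhibition of growth. TGI marks complete inhibition of growth.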
# Key:
# Assay in all cases: NCI tumour cell line growth inhibition, 384-well format
# [1] = system: SK-MEL-2 melanoma
# [2] = system: HCC-2998 colon
# [3] = system: MOLT-4 leukemia
# [4] = system: LOX IMVI melanoma
# [5] = system: MDA-MB-468 breast
# [6] = system: HCT-116 colon
# [7] = system: ACHN renal
# [8] = system: BT-549 breast
# [9] = system: KM12 colon
# [10] = system: OVCAR-3 ovarian
# [11] = system: CCRF-CEM leukemia
# [12] = system: SF-295 CNS
# [13] = system: SF-268 CNS
# [14] = system: SK-OV-3 ovarian
# [15] = system: OVCAR-8 ovarian
# [16] = system: RPMI-8226 leukemia
# [17] = system: HS 578T breast
# [18] = system: NCI/ADR-RES ovarian
# [19] = system: MDA-MB-435 melanoma
# [20] = system: NCI-H322M lung
# [21] = system: HOP-62 NSCLC
# [22] = system: A549 NSCLC
# [23] = system: COLO 205 colon
# [24] = system: SK-MEL-28 melanoma
# [25] = system: U251 glioblastoma
# [26] = system: SN12C renal
# [27] = system: HL-60(TB) leukemia
# [28] = system: 786-0 renal
smiles,measurement,setting,value
CC(C)NC(=O)OCc1c(COC(=O)NC(C)C)c(-c2ccc(Cl)c(Cl)c2)n2c1SCC2,GI50,[1],1.83 µM
same,TGI,[1],4.49 µM
same,GI50,[2],0.687 µM
same,TGI,[2],14.7 µM
same,GI50,[3],1.1 µM
same,TGI,[3],2.3 µM
same,GI50,[4],1.84 µM
same,TGI,[4],13.6 µM
same,GI50,[5],0.0344 µM
same,TGI,[5],0.936 µM
same,GI50,[6],4 µM
same,TGI,[6],19.8 µM
same,GI50,[7],2.31 µM
same,TGI,[7],7.85 µM
same,GI50,[8],3.92 µM
same,TGI,[8],15.3 µM
same,GI50,[9],7.21 µM
same,TGI,[9],21.6 µM
same,GI50,[10],2.99 µM
same,TGI,[10],14.1 µM
same,GI50,[11],2.07 µM
same,TGI,[11],4.95 µM
same,GI50,[12],3.18 µM
same,TGI,[12],10.1 µM
same,GI50,[13],3.18 µM
same,TGI,[13],10.3 µM
same,GI50,[14],3.26 µM
same,TGI,[14],11.4 µM
same,GI50,[15],5.97 µM
same,TGI,[15],19.1 µM
same,GI50,[16],1.79 µM
same,TGI,[16],5.03 µM
same,GI50,[17],4.85 µM
same,TGI,[17],17.3 µM
same,GI50,[18],3 µM
same,TGI,[18],13.2 µM
same,GI50,[19],13 µM
same,TGI,[19],25.8 µM
same,GI50,[20],7.6 µM
same,TGI,[20],21.7 µM
same,GI50,[21],1.89 µM
same,TGI,[21],4.66 µM
same,GI50,[22],10.2 µM
same,TGI,[22],23.9 µM
same,GI50,[23],8.39 µM
same,TGI,[23],21.7 µM
same,GI50,[24],12.7 µM
same,TGI,[24],26.1 µM
same,GI50,[25],5.16 µM
same,TGI,[25],18.4 µM
same,GI50,[26],3.88 µM
same,TGI,[26],14.1 µM
same,GI50,[27],1.27 µM
same,TGI,[27],2.58 µM
same,GI50,[28],4.31 µM
